Consider one molecule from ChEMBL document CHEMBL3608284, “C4 phenyl aporphines with selective h5-HT(2B) receptor affinity” (Bioorg Med Chem Lett, 2015).

Experiment [1] concerns the target Alpha-2B adrenergic receptor (Homo sapiens, UniProt P18089). As to the kind of experiment: Binding affinity to alpha2B adrenoceptor (unknown origin).
Experiment [2] addresses D(1A) dopamine receptor (Homo sapiens) (UniProt P21728). As to the kind of experiment: Binding affinity to dopamine D1 receptor (unknown origin) at 10 uM.
Experiment [3] addresses D(4) dopamine receptor (Homo sapiens) (UniProt P21917). As to the kind of experiment: Binding affinity to dopamine D4 receptor (unknown origin) at 10 uM.
Experiment [4] concerns the target Kappa-type opioid receptor (Homo sapiens) (UniProt P41145). Nature of the experiment: Binding affinity to KOR (unknown origin) at 10 uM.
Experiment [5] addresses 5-hydroxytryptamine receptor 1D (Homo sapiens) (UniProt P28221). As to the kind of experiment: Displacement of [3H]GR125743 from 5HT1D receptor (unknown origin) at 10 uM. A general note: Loss of bound radioactivity is the signal in a displacement assay; it reports binding, not function.
Experiment [6] has as its target Alpha-2C adrenergic receptor (Homo sapiens, UniProt P18825). Nature of the experiment: Binding affinity to alpha2C adrenoceptor (unknown origin).
Experiment [7] concerns the target Mu-type opioid receptor (Homo sapiens) (UniProt P35372). As to the kind of experiment: Binding affinity to MOR (unknown origin) at 10 uM.
Experiment [8] addresses T1, 5-hydroxytryptamine receptor 2B (Homo sapiens, UniProt P41595). Nature of the experiment: Displacement of [3H]LSD from 5HT2B receptor (unknown origin) at 10 uM.
In experiment [9] the target is T1, 5-hydroxytryptamine receptor 2B. Nature of the experiment: Displacement of [3H]LSD from 5HT2B receptor (unknown origin).
Experiment [10] has as its target 5-hydroxytryptamine receptor 1B (Homo sapiens, UniProt P28222). Nature of the experiment: Displacement of [3H]GR125743 from 5HT1B receptor (unknown origin) at 10 uM.
Experiment [11] deals with 5-hydroxytryptamine receptor 2A (Homo sapiens) (UniProt P28223). Nature of the experiment: Displacement of [3H]ketanserin from 5HT2A receptor (unknown origin) at 10 uM.
5-hydroxytryptamine receptor 2A (Homo sapiens), sequence (P28223 whole entry): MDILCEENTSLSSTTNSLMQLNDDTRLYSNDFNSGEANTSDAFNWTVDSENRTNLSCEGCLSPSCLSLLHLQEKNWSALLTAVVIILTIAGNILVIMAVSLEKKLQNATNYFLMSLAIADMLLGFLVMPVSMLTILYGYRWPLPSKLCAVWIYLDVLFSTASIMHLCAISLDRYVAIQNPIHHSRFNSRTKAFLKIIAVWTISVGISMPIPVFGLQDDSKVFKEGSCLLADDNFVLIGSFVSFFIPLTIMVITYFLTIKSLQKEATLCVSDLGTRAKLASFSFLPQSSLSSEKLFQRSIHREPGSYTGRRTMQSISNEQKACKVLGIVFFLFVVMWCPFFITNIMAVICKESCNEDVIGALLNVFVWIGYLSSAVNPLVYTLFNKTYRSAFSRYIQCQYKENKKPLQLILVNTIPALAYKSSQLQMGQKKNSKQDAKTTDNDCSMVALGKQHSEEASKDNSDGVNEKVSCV
The target in experiment [12] is Sodium-dependent noradrenaline transporter (Homo sapiens) (UniProt P23975). Nature of the experiment: Binding affinity to NET (unknown origin) at 10 uM.
Sodium-dependent noradrenaline transporter (Homo sapiens), sequence (P23975 whole entry): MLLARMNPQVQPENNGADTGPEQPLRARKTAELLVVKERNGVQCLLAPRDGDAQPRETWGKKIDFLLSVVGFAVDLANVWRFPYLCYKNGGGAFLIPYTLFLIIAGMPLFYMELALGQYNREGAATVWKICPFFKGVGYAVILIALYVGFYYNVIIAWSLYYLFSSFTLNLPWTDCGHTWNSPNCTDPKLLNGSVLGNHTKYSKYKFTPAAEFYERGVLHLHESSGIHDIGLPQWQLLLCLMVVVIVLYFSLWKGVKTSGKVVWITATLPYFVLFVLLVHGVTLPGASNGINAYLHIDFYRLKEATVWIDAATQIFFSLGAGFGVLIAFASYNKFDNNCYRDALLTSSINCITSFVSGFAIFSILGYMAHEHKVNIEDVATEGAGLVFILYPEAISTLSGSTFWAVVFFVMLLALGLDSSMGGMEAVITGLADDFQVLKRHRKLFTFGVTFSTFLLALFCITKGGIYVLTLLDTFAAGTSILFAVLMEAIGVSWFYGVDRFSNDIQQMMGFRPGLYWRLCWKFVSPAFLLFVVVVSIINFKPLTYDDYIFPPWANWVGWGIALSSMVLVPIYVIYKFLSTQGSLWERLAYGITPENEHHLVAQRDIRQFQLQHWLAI
Experiment [13] deals with Alpha-2A adrenergic receptor (Homo sapiens, UniProt P08913). Nature of the experiment: Binding affinity to alpha2A adrenoceptor (unknown origin).
Experiment [14] has as its target Cannabinoid receptor 2 (Homo sapiens) (UniProt P34972). Nature of the experiment: Binding affinity to CB2 receptor (unknown origin) at 10 uM.
The target in experiment [15] is Glutamate NMDA receptor; GRIN1/GRIN2A (Homo sapiens) (UniProt Q05586+Q12879). Nature of the experiment: Binding affinity to NMDA receptor (unknown origin) at 10 uM. In kind it is protein-complex assay.
Experiment [16] addresses T2, 5-hydroxytryptamine receptor 1A (Homo sapiens) (UniProt P08908).
T2 sequence (whole entry): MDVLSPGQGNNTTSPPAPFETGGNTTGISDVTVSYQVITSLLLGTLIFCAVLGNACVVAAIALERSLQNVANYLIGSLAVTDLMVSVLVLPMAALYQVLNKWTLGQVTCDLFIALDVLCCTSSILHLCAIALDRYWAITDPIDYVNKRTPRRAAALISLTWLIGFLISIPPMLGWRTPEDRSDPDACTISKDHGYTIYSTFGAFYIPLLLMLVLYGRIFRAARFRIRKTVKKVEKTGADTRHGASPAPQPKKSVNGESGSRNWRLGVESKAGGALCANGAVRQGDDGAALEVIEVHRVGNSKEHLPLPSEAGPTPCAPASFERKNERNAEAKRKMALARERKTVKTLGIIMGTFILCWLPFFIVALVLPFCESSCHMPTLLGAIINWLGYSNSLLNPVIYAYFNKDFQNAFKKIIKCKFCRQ
As to the kind of experiment: Displacement of [3H]-8-OH-DPAT from 5HT1A receptor (unknown origin) at 10 uM.

Molecules are shown by their SMILES. Some results are limits rather than exact numbers.

Broadly, the Ki is the dissociation constant of the complex between target and ligand, obtained from inhibition or displacement. The inhibition is the drop in the measured response relative to a control, in per cent.

T1 sequence (P41595 whole entry): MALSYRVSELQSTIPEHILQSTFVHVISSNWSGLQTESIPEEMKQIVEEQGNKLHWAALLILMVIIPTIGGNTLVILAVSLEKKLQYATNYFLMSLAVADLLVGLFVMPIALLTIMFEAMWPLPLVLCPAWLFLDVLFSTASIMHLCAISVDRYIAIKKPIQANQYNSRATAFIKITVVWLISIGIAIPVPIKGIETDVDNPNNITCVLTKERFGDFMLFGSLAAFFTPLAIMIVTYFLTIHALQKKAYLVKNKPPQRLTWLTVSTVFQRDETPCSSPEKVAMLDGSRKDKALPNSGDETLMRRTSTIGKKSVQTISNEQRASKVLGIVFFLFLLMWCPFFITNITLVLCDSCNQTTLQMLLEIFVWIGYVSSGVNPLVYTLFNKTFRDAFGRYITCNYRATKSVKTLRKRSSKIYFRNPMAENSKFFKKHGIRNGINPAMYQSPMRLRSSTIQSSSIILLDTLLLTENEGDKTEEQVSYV
D(4) dopamine receptor (Homo sapiens), sequence (P21917 whole entry): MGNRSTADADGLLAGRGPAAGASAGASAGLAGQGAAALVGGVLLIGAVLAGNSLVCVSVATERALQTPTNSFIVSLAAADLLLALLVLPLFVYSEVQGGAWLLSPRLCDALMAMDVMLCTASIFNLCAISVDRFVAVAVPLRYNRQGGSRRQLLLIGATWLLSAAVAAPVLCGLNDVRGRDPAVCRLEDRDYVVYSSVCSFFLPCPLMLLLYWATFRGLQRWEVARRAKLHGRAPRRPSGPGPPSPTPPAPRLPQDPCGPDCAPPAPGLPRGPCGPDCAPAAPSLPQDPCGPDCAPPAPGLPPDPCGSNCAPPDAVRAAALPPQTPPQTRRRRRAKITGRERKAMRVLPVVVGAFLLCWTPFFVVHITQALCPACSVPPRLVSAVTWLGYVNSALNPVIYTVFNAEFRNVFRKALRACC
Alpha-2B adrenergic receptor, sequence (P18089 whole entry): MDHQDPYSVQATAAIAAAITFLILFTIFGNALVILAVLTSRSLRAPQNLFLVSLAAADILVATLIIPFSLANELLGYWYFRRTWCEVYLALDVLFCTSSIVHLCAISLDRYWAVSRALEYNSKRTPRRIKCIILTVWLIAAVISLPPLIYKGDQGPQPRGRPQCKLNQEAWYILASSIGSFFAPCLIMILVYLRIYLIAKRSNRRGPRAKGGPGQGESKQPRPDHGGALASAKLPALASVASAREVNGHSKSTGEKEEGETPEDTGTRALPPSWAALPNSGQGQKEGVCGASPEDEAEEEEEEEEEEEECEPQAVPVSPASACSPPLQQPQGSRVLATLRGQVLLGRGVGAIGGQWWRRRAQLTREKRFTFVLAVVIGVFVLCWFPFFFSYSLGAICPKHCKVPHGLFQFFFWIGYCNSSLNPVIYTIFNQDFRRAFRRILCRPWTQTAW
Alpha-2C adrenergic receptor, sequence (P18825 whole entry): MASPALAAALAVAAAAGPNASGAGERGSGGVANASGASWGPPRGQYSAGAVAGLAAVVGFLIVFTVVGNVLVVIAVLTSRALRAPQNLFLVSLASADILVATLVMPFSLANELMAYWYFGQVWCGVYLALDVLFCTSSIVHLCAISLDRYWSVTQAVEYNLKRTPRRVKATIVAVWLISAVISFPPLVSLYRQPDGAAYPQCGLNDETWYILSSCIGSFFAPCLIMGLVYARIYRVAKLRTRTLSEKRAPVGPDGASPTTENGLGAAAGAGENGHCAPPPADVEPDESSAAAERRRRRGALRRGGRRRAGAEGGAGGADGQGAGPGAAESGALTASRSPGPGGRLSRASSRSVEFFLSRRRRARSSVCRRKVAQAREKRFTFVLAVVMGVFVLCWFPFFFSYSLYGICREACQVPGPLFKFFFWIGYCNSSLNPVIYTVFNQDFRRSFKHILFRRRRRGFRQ
5-hydroxytryptamine receptor 1B, sequence (P28222 whole entry): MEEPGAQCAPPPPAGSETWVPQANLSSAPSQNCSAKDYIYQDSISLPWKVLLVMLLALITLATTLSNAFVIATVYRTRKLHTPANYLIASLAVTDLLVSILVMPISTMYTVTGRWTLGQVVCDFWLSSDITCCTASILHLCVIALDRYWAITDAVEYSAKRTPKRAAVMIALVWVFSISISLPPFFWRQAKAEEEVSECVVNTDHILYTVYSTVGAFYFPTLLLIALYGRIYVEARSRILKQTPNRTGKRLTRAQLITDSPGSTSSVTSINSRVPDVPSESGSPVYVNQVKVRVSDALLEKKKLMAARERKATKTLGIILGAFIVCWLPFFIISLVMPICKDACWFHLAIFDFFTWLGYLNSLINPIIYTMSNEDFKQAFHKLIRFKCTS
Kappa-type opioid receptor (Homo sapiens), sequence (P41145 whole entry): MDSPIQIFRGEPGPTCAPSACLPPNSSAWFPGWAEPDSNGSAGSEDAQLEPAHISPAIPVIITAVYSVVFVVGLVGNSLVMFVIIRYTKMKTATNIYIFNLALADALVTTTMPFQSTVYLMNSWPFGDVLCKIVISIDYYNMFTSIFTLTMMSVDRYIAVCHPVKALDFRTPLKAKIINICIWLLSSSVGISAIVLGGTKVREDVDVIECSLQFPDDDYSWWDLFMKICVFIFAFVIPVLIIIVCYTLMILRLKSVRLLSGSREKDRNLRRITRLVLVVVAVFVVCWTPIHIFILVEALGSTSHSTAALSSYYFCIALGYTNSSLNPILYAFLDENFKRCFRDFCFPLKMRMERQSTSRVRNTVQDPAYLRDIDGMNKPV
Cannabinoid receptor 2 (Homo sapiens), sequence (P34972 whole entry): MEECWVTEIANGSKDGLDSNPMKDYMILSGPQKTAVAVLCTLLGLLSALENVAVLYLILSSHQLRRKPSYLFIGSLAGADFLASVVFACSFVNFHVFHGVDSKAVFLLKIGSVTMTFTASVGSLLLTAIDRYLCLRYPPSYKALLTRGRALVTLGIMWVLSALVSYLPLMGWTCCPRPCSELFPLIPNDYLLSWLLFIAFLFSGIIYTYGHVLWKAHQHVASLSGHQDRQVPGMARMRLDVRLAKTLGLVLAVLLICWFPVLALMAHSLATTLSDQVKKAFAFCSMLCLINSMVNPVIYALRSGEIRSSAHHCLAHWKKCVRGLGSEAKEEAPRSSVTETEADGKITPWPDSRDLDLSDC
D(1A) dopamine receptor (Homo sapiens), sequence (P21728 whole entry): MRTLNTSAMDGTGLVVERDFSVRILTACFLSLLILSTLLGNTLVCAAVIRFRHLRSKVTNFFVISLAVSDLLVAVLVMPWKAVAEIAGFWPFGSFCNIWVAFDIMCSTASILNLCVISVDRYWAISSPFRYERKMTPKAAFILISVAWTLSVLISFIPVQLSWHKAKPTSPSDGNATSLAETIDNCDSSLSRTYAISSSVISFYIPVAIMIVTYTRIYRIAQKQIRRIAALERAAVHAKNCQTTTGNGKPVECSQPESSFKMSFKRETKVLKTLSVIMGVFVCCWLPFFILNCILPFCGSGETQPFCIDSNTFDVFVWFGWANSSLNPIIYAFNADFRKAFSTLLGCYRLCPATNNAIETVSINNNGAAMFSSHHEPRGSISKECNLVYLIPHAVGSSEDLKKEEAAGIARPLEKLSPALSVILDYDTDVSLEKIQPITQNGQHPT
Mu-type opioid receptor (Homo sapiens), sequence (P35372 whole entry): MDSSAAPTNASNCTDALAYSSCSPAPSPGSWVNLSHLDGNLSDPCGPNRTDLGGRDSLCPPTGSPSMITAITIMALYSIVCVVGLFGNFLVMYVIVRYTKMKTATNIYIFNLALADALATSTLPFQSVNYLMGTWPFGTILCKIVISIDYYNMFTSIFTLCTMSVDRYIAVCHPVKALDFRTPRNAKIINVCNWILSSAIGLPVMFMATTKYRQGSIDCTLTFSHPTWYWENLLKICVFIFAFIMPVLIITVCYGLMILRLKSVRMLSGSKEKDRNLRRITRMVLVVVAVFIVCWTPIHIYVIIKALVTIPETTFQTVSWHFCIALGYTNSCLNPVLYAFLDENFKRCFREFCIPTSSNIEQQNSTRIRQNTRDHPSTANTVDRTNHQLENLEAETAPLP

For `COc1cc2c3c(c1OC)-c1cc4c(cc1CC3N(C)CC2c1ccccc1)OCO4` (stereo unspecified), the inhibition constant (Ki) was determined as 3.22 µM in experiment [1], 0.433 µM in experiment [6], 0.096 µM in [9] and 0.719 µM in experiment [13]. Further, the inhibition in experiment [2] was under 50%; in experiment [3] it was under 50%; in [4], under 50%; in [5], 34.5%; in experiment [7] it was under 50%; in experiment [8], 92.2%. Further, the inhibition in [10] was 22.6%; in [11], 33.5%; in experiment [12] it was under 50%; in experiment [14] it was under 50%; in [15], under 50%; in experiment [16], 5.5%.
